Assay results as given in patent publication US12486233B2 (Exelixis, Inc., priority 2014, dated 2025).

Legend:
[1] = Dynamic Vapor Sorption (DVS): hygroscopicity and sorption properties; assay type: physicochemical; conditions: for hygroscopicity classification: 25° C., European Pharmacopeia classification where stated
Description: Dynamic Vapor Sorption (DVS) was performed using a Hiden Analytical Instruments IGAsorp Vapor Sorption Balance. Approximately 30 mg of sample was placed into a wire-mesh Vapor sorption balance pan, loaded into the IGAsorp Vapor sorption balance and held at 25° C.±0.1° C. The sample was subjected to a step profile from 0 to 90% RH at 10% increments, followed by desorption from 80% RH to 0% RH at 10% increments. The equilibrium criterion was set to 99.0% step completion within a minimum of […] and a maximum of 5 hours for each increment. The weight change during the sorption cycle was monitored, allowing for the hygroscopic nature of the sample to be determined. The data collection interval was in seconds.

[2] = physical stability of amorphous material under stress conditions (temperature, relative humidity); assay type: physicochemical; conditions: 100° C. for 4 days
[3] = BCS classification / solubility in initial development experiments; assay type: physicochemical; conditions: free base; in water
[4] = permeability (BCS classification) in initial development experiments; assay type: in vitro ADME; conditions: free base

## COc1cc2nccc(Oc3ccc(NC(=O)C4(C(=O)Nc5ccc(F)cc5)CC4)cc3)c2cc1OC [Compound 1 Amorphous Form, N-{4-[(6,7-dimethoxyquinolin-4-yl)oxy]phenyl}-N′-(4-fluorophenyl) cyclopropane-1,1-dicarboxamide]
[1]; DVS
  water uptake at 90% RH: approximately 5%
  hygroscopicity classification: hygroscopic
[1]; DVS, sample dried at 0% RH first
  total weight gain between 0% RH and 80% RH: 4 % w/w
[1]; after the DVS cycle
  crystallization by XRPD of the sample post DVS: no crystallization had occurred
[2]
  physical stability to heat stressing: stable

## COc1cc2nccc(Oc3ccc(NC(=O)C4(C(=O)Nc5ccc(F)cc5)CC4)cc3)c2cc1OC [Compound 1 Form I, N-{4-[(6,7-dimethoxyquinolin-4-yl)oxy]phenyl}-N′-(4-fluorophenyl) cyclopropane-1,1-dicarboxamide]
[1]; DVS
  weight gain between 40% RH and 90% RH: very small weight gain
  hygroscopicity classification: non-hygroscopic
[1]; DVS, 40% RH to 90% RH
  stability at higher humidity: stable

## COc1cc2nccc(Oc3ccc(NC(=O)C4(C(=O)Nc5ccc(F)cc5)CC4)cc3)c2cc1OC [Compound 1 Form III, N-{4-[(6,7-dimethoxyquinolin-4-yl)oxy]phenyl}-N′-(4-fluorophenyl) cyclopropane-1,1-dicarboxamide]
[1]; DVS
  weight gain between 0% RH and 80% RH (in words): very small weight gain
  hygroscopicity classification: non-hygroscopic

## COc1cc2nccc(Oc3ccc(NC(=O)C4(C(=O)Nc5ccc(F)cc5)CC4)cc3)c2cc1OC [Compound 1 Form XXVIII, N-{4-[(6,7-dimethoxyquinolin-4-yl)oxy]phenyl}-N′-(4-fluorophenyl) cyclopropane-1,1-dicarboxamide]
[1]; DVS
  weight gain between 0% RH and 80% RH (in words): very small weight gain
  hygroscopicity classification: non-hygroscopic

## COc1cc2nccc(Oc3ccc(NC(=O)C4(C(=O)Nc5ccc(F)cc5)CC4)cc3)c2cc1OC [Compound 1 Form XXX, N-{4-[(6,7-dimethoxyquinolin-4-yl)oxy]phenyl}-N′-(4-fluorophenyl) cyclopropane-1,1-dicarboxamide]
[1]; DVS
  hygroscopicity classification: hygroscopic

## COc1cc2nccc(Oc3ccc(NC(=O)C4(C(=O)Nc5ccc(F)cc5)CC4)cc3)c2cc1OC [Compound 1 Form XXXI, N-{4-[(6,7-dimethoxyquinolin-4-yl)oxy]phenyl}-N′-(4-fluorophenyl) cyclopropane-1,1-dicarboxamide]
[1]; DVS, sample dried at 0% RH before sorption and desorption
  weight lost on drying to 0% RH: −7%

## COc1cc2nccc(Oc3ccc(NC(=O)C4(C(=O)Nc5ccc(F)cc5)CC4)cc3)c2cc1OC [Compound 1, N-{4-[(6,7-dimethoxyquinolin-4-yl)oxy]phenyl}-N′-(4-fluorophenyl) cyclopropane-1,1-dicarboxamide]
[3]
  solubility: low solubility
[4]
  permeability: high permeability
